What was measured:
[1] = test system: Tyrosine-protein kinase ABL1 (Homo sapiens), P00519 [M351T]; conditions: Compound concentration 1000.0 nM
[2] = target: Atypical kinase COQ8A, mitochondrial (Homo sapiens) (UniProt Q8NI60); conditions: Compound concentration 1000.0 nM
[3] = test system: ALK tyrosine kinase receptor (Homo sapiens), Q9UM73 [L1196M]; conditions: Compound concentration 1000.0 nM
[4] = target: Ankyrin repeat and protein kinase domain-containing protein 1 (Homo sapiens) (UniProt Q8NFD2); conditions: Compound concentration 1000.0 nM
[5] = target: Tyrosine-protein kinase receptor UFO (Homo sapiens) (UniProt P30530); conditions: Compound concentration 1000.0 nM
[6] = target: Cyclin-dependent kinase 11B (Homo sapiens) (UniProt P21127); conditions: Compound concentration 1000.0 nM
[7] = target: Cyclin-dependent kinase-like 3 (Homo sapiens) (UniProt Q8IVW4); conditions: Compound concentration 1000.0 nM
[8] = target: Dual specificity protein kinase CLK2 (Homo sapiens) (UniProt P49760); conditions: Compound concentration 1000.0 nM
[9] = target: Casein kinase I isoform alpha (Homo sapiens) (UniProt P48729); conditions: Compound concentration 1000.0 nM
[10] = test system: Epidermal growth factor receptor (Homo sapiens), P00533 [G719C]; conditions: Compound concentration 1000.0 nM
[11] = target: Fibroblast growth factor receptor 4 (Homo sapiens) (UniProt P22455); conditions: Compound concentration 1000.0 nM
Chain of Fibroblast growth factor receptor 4 (Homo sapiens) (P22455 22-802 limits assumed): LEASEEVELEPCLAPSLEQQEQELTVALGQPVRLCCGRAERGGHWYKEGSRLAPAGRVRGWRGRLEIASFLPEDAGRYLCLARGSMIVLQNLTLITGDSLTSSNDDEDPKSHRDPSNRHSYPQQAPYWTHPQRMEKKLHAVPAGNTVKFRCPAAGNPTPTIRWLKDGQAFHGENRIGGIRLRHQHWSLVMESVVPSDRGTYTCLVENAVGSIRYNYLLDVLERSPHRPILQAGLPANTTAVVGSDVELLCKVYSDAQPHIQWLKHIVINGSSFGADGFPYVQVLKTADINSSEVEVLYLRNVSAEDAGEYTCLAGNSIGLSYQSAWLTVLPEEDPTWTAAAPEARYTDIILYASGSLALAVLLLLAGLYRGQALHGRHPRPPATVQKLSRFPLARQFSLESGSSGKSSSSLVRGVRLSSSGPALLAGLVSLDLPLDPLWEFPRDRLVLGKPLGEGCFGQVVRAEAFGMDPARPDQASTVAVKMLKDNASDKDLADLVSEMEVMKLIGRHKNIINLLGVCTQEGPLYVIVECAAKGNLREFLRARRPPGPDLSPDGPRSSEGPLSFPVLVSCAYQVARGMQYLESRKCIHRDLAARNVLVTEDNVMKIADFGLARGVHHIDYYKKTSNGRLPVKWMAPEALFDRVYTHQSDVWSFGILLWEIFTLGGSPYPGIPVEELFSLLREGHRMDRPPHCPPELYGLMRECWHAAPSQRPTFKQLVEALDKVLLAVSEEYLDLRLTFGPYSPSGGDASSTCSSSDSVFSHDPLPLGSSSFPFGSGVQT

[12] = target: Cyclin-G-associated kinase (Homo sapiens) (UniProt O14976); conditions: Compound concentration 1000.0 nM
[13] = target: Beta-adrenergic receptor kinase 1 (Homo sapiens) (UniProt P25098); conditions: Compound concentration 1000.0 nM
Chain of Beta-adrenergic receptor kinase 1 (Homo sapiens) (P25098 whole entry): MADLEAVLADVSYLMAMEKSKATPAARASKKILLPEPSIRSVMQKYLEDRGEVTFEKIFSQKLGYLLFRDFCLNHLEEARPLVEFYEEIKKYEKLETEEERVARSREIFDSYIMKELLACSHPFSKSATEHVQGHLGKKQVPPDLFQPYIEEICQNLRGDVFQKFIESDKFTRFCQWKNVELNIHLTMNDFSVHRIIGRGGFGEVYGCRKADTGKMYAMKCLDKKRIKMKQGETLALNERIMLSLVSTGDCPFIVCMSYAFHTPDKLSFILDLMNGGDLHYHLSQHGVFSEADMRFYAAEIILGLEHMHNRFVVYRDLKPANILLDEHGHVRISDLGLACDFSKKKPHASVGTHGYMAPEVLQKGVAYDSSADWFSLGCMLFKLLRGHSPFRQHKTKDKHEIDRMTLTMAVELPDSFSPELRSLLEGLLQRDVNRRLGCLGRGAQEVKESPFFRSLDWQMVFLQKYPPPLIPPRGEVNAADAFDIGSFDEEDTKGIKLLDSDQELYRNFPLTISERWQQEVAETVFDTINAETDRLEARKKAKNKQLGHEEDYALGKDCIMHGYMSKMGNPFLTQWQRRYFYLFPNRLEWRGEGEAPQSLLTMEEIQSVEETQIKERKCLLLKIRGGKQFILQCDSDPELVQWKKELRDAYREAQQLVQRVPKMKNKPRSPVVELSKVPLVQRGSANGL

[14] = target: Interleukin-1 receptor-associated kinase 4 (Homo sapiens) (UniProt Q9NWZ3); conditions: Compound concentration 1000.0 nM
[15] = target: Mast/stem cell growth factor receptor Kit (Homo sapiens) (UniProt P10721); conditions: Compound concentration 1000.0 nM
[16] = target: Serine/threonine-protein kinase 10 (Homo sapiens) (UniProt O94804); conditions: Compound concentration 1000.0 nM
[17] = target: Leukocyte tyrosine kinase receptor (Homo sapiens) (UniProt P29376); conditions: Compound concentration 1000.0 nM
[18] = target: Tyrosine-protein kinase Lyn (Homo sapiens) (UniProt P07948); conditions: Compound concentration 1000.0 nM
[19] = target: Mitogen-activated protein kinase kinase kinase 15 (Homo sapiens) (UniProt Q6ZN16); conditions: Compound concentration 1000.0 nM
[20] = target: MAP kinase-activated protein kinase 2 (Homo sapiens) (UniProt P49137); conditions: Compound concentration 1000.0 nM
[21] = target: Serine/threonine-protein kinase 38-like (Homo sapiens) (UniProt Q9Y2H1); conditions: Compound concentration 1000.0 nM
[22] = target: Serine/threonine-protein kinase OSR1 (Homo sapiens) (UniProt O95747); conditions: Compound concentration 1000.0 nM
[23] = target: Mitogen-activated protein kinase 14 (Homo sapiens) (UniProt Q16539); conditions: Compound concentration 1000.0 nM
[24] = target: Calcium-dependent protein kinase 1 (Plasmodium falciparum) (UniProt P62344); conditions: Compound concentration 1000.0 nM
Chain of Calcium-dependent protein kinase 1 (Plasmodium falciparum) (P62344 2-524 limits assumed): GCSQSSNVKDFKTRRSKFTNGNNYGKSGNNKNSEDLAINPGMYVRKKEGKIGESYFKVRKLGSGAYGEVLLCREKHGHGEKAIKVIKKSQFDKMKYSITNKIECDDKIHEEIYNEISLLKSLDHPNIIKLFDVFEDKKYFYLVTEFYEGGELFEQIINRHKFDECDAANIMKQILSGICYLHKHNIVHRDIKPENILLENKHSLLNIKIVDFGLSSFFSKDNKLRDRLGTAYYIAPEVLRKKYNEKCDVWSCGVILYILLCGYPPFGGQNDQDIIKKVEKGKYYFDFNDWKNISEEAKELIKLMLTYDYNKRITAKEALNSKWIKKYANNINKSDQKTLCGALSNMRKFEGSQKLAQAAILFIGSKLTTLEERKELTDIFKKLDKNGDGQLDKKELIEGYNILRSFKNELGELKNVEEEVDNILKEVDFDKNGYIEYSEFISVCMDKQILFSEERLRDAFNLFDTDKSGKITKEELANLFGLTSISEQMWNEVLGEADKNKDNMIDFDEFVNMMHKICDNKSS

[25] = target: Cyclin-dependent kinase 14 (Homo sapiens) (UniProt O94921); conditions: Compound concentration 1000.0 nM
[26] = test system: Phosphatidylinositol 4,5-bisphosphate 3-kinase catalytic subunit alpha isoform (Homo sapiens), P42336 [C420R]; conditions: Compound concentration 1000.0 nM
[27] = test system: Phosphatidylinositol 4,5-bisphosphate 3-kinase catalytic subunit alpha isoform (Homo sapiens), P42336 [H1047L]; conditions: Compound concentration 1000.0 nM
[28] = target: Phosphatidylinositol 4,5-bisphosphate 3-kinase catalytic subunit gamma isoform (Homo sapiens) (UniProt P48736); conditions: Compound concentration 1000.0 nM
[29] = target: Phosphatidylinositol 4-phosphate 5-kinase type-1 alpha (Homo sapiens) (UniProt Q99755); conditions: Compound concentration 1000.0 nM
[30] = target: Serine/threonine-protein kinase N2 (Homo sapiens) (UniProt Q16513); conditions: Compound concentration 1000.0 nM
Chain of Serine/threonine-protein kinase N2 (Homo sapiens) (Q16513 whole entry, looked up): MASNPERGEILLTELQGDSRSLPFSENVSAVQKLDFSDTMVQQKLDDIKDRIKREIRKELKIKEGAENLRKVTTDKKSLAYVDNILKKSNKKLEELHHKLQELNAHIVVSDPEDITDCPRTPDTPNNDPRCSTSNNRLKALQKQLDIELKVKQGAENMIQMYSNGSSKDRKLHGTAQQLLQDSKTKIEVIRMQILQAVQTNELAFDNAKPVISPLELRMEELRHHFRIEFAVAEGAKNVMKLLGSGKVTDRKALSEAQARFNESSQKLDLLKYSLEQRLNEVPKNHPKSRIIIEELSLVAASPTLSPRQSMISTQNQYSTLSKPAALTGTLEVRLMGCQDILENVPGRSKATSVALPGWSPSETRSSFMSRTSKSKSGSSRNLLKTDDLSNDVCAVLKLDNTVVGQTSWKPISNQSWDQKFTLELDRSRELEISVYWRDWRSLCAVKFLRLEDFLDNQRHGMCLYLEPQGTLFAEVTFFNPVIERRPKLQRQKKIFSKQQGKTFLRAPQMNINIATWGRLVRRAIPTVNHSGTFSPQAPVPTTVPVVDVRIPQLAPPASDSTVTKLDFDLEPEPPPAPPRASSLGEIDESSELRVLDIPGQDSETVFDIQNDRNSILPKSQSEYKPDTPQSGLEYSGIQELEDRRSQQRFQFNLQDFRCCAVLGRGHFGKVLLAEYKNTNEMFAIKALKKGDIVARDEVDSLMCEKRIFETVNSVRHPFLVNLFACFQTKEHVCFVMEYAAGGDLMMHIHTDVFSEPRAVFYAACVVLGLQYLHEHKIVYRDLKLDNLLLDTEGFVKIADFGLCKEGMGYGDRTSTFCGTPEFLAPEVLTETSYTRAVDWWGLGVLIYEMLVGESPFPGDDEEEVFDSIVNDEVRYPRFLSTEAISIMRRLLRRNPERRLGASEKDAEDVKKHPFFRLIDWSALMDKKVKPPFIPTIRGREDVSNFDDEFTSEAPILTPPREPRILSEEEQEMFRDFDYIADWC

[31] = target: Ribosomal protein S6 kinase alpha-1 (Homo sapiens) (UniProt Q15418); conditions: Compound concentration 1000.0 nM
Chain of Ribosomal protein S6 kinase alpha-1 (Homo sapiens) (Q15418 whole entry): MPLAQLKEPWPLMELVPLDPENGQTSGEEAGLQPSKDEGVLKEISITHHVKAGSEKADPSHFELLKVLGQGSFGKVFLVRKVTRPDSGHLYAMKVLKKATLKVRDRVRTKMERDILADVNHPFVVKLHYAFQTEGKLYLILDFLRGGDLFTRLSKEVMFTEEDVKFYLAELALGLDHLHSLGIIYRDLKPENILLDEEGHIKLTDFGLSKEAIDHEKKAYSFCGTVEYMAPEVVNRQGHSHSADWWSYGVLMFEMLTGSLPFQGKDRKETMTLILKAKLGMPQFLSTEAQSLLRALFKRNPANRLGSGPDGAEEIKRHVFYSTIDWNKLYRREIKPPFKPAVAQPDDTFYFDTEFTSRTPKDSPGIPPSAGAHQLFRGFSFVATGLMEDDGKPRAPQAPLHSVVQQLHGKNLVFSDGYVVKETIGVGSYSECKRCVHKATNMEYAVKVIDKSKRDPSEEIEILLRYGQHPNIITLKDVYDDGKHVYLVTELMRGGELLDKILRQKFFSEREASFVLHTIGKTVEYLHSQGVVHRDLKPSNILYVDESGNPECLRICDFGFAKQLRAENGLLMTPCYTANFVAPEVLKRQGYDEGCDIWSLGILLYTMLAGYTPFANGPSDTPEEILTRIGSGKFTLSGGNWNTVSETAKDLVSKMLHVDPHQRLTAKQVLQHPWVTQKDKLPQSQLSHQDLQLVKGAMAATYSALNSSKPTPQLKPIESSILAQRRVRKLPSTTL

[32] = target: SRSF protein kinase 1 (Homo sapiens) (UniProt Q96SB4); conditions: Compound concentration 1000.0 nM
[33] = target: Activated CDC42 kinase 1 (Homo sapiens) (UniProt Q07912); conditions: Compound concentration 1000.0 nM
[34] = target: Testis-specific serine/threonine-protein kinase 3 (Homo sapiens) (UniProt Q96PN8); conditions: Compound concentration 1000.0 nM
[35] = target: Non-receptor tyrosine-protein kinase TYK2 (Homo sapiens) (UniProt P29597); conditions: Compound concentration 1000.0 nM
Chain of Non-receptor tyrosine-protein kinase TYK2 (Homo sapiens) (P29597 whole entry): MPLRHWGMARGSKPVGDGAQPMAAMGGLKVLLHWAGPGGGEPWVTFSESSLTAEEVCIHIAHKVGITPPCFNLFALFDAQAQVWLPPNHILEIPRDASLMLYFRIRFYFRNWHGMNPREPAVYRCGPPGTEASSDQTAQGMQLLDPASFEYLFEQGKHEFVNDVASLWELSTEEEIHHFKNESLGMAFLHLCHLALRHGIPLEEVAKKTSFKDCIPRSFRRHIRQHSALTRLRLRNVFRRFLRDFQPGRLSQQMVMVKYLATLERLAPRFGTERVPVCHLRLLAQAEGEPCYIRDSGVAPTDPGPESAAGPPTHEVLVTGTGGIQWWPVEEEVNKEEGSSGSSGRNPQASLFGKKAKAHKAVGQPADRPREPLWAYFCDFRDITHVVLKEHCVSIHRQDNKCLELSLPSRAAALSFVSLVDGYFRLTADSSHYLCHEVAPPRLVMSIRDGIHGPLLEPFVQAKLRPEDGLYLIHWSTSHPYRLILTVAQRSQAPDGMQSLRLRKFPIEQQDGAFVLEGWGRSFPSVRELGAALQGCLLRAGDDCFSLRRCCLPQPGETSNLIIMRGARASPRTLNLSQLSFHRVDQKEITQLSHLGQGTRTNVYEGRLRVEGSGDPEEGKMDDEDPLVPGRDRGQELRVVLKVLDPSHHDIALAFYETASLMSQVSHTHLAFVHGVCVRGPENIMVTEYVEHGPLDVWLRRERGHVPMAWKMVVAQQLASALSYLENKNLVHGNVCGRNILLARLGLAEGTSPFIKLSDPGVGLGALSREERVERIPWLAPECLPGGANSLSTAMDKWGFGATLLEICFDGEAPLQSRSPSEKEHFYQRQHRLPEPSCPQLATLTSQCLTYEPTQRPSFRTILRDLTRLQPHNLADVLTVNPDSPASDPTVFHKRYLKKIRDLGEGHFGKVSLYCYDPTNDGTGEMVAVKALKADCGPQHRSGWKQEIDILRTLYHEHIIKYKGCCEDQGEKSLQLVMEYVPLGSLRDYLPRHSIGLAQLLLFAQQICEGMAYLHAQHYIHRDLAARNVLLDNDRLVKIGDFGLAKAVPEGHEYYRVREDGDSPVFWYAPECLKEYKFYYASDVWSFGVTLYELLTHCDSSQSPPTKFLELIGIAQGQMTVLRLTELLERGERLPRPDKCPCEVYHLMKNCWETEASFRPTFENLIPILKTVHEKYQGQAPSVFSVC

[36] = target: Serine/threonine-protein kinase 32A (Homo sapiens) (UniProt Q8WU08); conditions: Compound concentration 1000.0 nM
[37] = target: Mitogen-activated protein kinase kinase kinase 19 (Homo sapiens) (UniProt Q56UN5); conditions: Compound concentration 1000.0 nM
[38] = target: D(1B) dopamine receptor (Homo sapiens) (UniProt P21918); conditions: Compound concentration 10.0 uM
[39] = target: T1, Alpha-1A adrenergic receptor (Homo sapiens) (UniProt P35348); conditions: Compound concentration 10.0 uM
T1 sequence (whole entry): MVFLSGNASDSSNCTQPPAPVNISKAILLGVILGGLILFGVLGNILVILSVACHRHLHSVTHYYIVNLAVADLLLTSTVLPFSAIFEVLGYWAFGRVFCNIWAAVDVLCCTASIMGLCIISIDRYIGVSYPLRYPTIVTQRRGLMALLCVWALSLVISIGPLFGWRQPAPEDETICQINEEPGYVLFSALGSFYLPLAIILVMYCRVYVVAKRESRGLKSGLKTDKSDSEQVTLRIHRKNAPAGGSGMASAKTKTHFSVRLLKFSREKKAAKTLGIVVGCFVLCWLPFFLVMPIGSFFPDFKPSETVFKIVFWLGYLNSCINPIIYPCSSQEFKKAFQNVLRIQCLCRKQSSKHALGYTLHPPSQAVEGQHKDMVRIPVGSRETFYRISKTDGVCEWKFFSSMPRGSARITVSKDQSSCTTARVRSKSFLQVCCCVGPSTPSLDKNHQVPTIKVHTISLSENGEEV

CC(=O)N1CCC(c2ccc(C(=O)NC3=NCCN3)cc2C(F)(F)F)CC1 [BI 0054]
inactive: residual activity [1] 100% | residual activity [2] 95% | residual activity [3] 70% | residual activity [4] 100% | residual activity [5] 100% | residual activity [6] 92% | residual activity [7] 100% | residual activity [8] 91% | residual activity [9] 76% | residual activity [10] 100% | residual activity [11] 88% | residual activity [12] 97% | residual activity [13] 77% | residual activity [14] 89% | residual activity [15] 91% | residual activity [16] 100% | residual activity [17] 100% | residual activity [18] 94% | residual activity [19] 93% | residual activity [20] 100% | residual activity [21] 90% | residual activity [22] 100% | residual activity [23] 100% | residual activity [24] 90% | residual activity [25] 100% | residual activity [26] 93% | residual activity [27] 100% | residual activity [28] 100% | residual activity [29] 100% | residual activity [30] 100% | residual activity [31] 100% | residual activity [32] 100% | residual activity [33] 100% | residual activity [34] 100% | residual activity [35] 100% | residual activity [36] 100% | residual activity [37] 100% | inhibition [38] -9.82% | inhibition [39] -5.1%

CC(=O)N1CCC(c2ccc(C(=O)NC(=N)N)cc2C(F)(F)F)CC1 [BI 9627]
inactive: residual activity [1] 100% | residual activity [2] 96% | residual activity [3] 96% | residual activity [4] 100% | residual activity [5] 100% | residual activity [6] 100% | residual activity [7] 100% | residual activity [8] 100% | residual activity [9] 92% | residual activity [10] 100% | residual activity [11] 100% | residual activity [12] 100% | residual activity [13] 96% | residual activity [14] 100% | residual activity [15] 95% | residual activity [16] 94% | residual activity [17] 100% | residual activity [18] 100% | residual activity [19] 100% | residual activity [20] 100% | residual activity [21] 99% | residual activity [22] 100% | residual activity [23] 100% | residual activity [24] 87% | residual activity [25] 100% | residual activity [26] 100% | residual activity [27] 100% | residual activity [28] 100% | residual activity [29] 94% | residual activity [30] 100% | residual activity [31] 100% | residual activity [32] 86% | residual activity [33] 100% | residual activity [34] 100% | residual activity [35] 100% | residual activity [36] 100% | residual activity [37] 100% | inhibition [38] -8.21% | inhibition [39] 6.05%

Source: ChEMBL document CHEMBL4507279, “Data for DCP probe BI-9627” (2021)
